Test results reported in patent US20220340629A1, “Myosin Derived Peptides and Related Compounds with Anticoagulant Activities” (THE SCRIPPS RESEARCH INSTITUTE, priority 0001, published 2022).
pIC50: −log10 of the molar value. Read-outs that look alike come from different tables or passages of the source. Non-standard residues stand in square brackets, D forms with d. Residues, ends and D or L forms follow the SMILES beside them. NMeH = CN[C@@H](Cc1c[nH]cn1)C(=O)O; NMeI = CC[C@H](C)[C@H](NC)C(=O)O; NMeA = CN[C@@H](C)C(=O)O; Nle = CCCC[C@H](N)C(=O)O

Biological target: skeletal muscle myosin-supported prothrombin activation by factors Xa and Va (Homo sapiens, UniProt P00742)
Sequence (P00742 41-179): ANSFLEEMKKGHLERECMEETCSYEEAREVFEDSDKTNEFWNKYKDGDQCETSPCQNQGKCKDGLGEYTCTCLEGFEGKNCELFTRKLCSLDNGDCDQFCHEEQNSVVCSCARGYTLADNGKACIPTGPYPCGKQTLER
Sequence (P00742 235-488): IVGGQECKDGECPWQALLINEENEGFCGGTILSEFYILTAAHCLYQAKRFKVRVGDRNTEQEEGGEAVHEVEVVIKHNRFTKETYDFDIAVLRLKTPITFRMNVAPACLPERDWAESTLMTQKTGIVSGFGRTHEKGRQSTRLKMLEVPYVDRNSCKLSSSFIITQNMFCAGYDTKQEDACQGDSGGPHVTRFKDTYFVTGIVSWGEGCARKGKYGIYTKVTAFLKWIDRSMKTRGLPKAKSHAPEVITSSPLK
Sequence (P12259 29-737 partner): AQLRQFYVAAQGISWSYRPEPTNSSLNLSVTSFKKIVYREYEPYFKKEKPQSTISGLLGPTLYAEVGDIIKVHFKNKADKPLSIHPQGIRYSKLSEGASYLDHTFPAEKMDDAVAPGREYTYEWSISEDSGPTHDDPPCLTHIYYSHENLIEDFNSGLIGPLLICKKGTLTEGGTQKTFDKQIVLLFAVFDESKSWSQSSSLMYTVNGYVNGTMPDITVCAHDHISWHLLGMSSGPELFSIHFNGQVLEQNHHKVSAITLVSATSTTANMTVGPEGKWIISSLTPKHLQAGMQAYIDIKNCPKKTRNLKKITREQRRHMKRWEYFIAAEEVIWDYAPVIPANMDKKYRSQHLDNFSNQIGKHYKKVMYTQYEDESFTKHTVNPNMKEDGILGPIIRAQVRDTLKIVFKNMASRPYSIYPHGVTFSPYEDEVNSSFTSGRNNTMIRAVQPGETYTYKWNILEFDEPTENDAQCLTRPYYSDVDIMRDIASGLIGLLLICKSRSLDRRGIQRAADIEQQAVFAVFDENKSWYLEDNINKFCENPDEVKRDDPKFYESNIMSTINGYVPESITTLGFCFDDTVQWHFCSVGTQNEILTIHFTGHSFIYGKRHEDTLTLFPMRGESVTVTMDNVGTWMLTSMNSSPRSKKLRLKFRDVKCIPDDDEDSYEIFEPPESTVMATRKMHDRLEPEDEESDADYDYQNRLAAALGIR
Sequence (P12259 1574-2224 partner): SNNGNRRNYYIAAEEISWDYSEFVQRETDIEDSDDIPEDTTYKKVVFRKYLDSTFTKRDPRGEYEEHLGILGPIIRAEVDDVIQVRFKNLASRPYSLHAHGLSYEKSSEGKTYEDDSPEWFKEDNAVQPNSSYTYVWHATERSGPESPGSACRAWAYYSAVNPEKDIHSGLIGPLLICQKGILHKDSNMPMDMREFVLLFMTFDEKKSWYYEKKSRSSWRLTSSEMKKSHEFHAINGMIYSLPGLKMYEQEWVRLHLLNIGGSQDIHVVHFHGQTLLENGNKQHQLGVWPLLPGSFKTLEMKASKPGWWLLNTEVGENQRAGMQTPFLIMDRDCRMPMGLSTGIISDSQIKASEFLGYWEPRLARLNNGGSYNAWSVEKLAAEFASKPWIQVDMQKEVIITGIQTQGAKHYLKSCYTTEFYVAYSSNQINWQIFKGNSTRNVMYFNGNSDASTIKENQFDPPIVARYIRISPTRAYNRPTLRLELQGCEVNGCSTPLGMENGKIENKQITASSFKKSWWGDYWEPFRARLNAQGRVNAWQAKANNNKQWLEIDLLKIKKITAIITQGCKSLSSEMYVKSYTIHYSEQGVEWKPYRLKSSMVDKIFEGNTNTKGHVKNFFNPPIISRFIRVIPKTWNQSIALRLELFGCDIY
Experiment: Assay 1A: prothrombin activation by factor Xa/factor Va/myosin in purified system
Format: biochemical, human factors Xa and Va; rabbit skeletal muscle myosin
Details: purified system
[1] = skeletal muscle myosin, factor Va 5 nM, factor Xa 0.2 nM, prothrombin 0.75 μM, 10 min, read-out: 1A (+myosin)
[2] = prothrombin activation with myosin, read-out: 1A (+ myosin) IC50

Compound | pIC50 [1] | pIC50 [2]
CC[C@H](C)[C@H](NC(=O)[C@H](C)N)C(=O)N[C@@H](Cc1ccccc1)C(=O)N[C@@H](CS)C(=O)N[C@H](C(=O)N[C@@H](CCC(N)=O)C(=O)N[C@@H](Cc1ccc(O)cc1)C(=O)N[C@@H](CC(N)=O)C(=O)N[C@H](C(=O)N[C@@H](CCCNC(=N)N)C(=O)N[C@@H](CO)C(=O)N[C@@H](C)C(=O)N[C@@H](CCSC)C(=O)N[C@@H](CC(N)=O)C(=O)N[C@H](C(=O)N[C@@H](CCCCN)C(=O)N[C@@H](Cc1c[nH]cn1)C(=O)N[C@@H](Cc1c[nH]c2ccccc12)C(=O)N1CCC[C@H]1C(=O)N[C@@H](Cc1c[nH]c2ccccc12)C(=O)N[C@@H](CCSC)C(=O)N[C@@H](CCCCN)C(N)=O)C(C)C)[C@@H](C)CC)[C@@H](C)CC [HC127] (H-AIFCIQYNIRSAMNVKHWPWMK-NH2; N-terminus assumed) | 5.23 | –
RVFDKEGNGTVMGAELRHVL (Ac-RVFDKEGNGTVMGAELRHVL-NH2) [ELC138-157] | – | 4.12
YEDFVEGLRVFDKEGN (Ac-YEDFVEGLRVFDKEGN-NH2) [ELC129-144] | – | ~4.15
CCCC[C@H](NC(=O)[C@H](Cc1c[nH]c2ccccc12)NC(=O)[C@@H]1CCCN1C(=O)[C@H](Cc1c[nH]c2ccccc12)NC(=O)[C@H](Cc1c[nH]cn1)NC(=O)[C@H](CCCCN)NC(=O)[C@@H](NC(=O)[C@H](CC(N)=O)NC(=O)[C@H](CCCC)NC(=O)[C@H](Cc1ccccc1)NC(=O)[C@H](CO)NC(=O)[C@H](CCCNC(=N)N)NC(=O)[C@@H](NC(=O)[C@H](CC(N)=O)NC(=O)[C@H](Cc1ccc(O)cc1)NC(=O)[C@H](CCC(N)=O)NC(=O)[C@@H](NC(=O)[C@H](CS)NC(=O)[C@H](Cc1ccccc1)NC(=O)[C@@H](NC(=O)[C@H](C)NC)[C@@H](C)CC)[C@@H](C)CC)[C@@H](C)CC)C(C)C)C(=O)N[C@@H](CCCCN)C(N)=O [HC190] (H-[NMeA]IFCIQYNIRSF[Nle]NVKHWPW[Nle]K-NH2; N-terminus assumed) | 5.44 | –
CC[C@H](C)[C@H](NC(=O)[C@H](C)N)C(=O)N[C@@H](Cc1ccccc1)C(=O)N[C@@H](CS)C(=O)N[C@H](C(=O)N[C@@H](CCC(N)=O)C(=O)N[C@@H](Cc1ccc(O)cc1)C(=O)N[C@@H](CC(N)=O)C(=O)N[C@H](C(=O)N[C@@H](CCCNC(=N)N)C(=O)N[C@@H](C)C(=O)N[C@@H](Cc1ccccc1)C(=O)N[C@@H](CCSC)C(=O)N[C@@H](CC(N)=O)C(=O)N[C@H](C(=O)N[C@@H](CCCCN)C(=O)N[C@@H](Cc1c[nH]cn1)C(=O)N[C@@H](Cc1c[nH]c2ccccc12)C(=O)N1CCC[C@H]1C(=O)N[C@@H](Cc1c[nH]c2ccccc12)C(=O)N[C@@H](CCSC)C(=O)N[C@@H](CCCCN)C(N)=O)C(C)C)[C@@H](C)CC)[C@@H](C)CC [HC126] (H-AIFCIQYNIRAFMNVKHWPWMK-NH2; N-terminus assumed) | 5.31 | –
CC[C@H](C)[C@H](NC(=O)[C@H](C)N)C(=O)N[C@@H](Cc1ccccc1)C(=O)N[C@@H](CS)C(=O)N[C@@H](C)C(=O)N[C@@H](CCC(N)=O)C(=O)N[C@@H](Cc1ccc(O)cc1)C(=O)N[C@@H](CC(N)=O)C(=O)N[C@H](C(=O)N[C@@H](CCCNC(=N)N)C(=O)N[C@@H](CO)C(=O)N[C@@H](Cc1ccccc1)C(=O)N[C@@H](CCSC)C(=O)N[C@@H](CC(N)=O)C(=O)N[C@H](C(=O)N[C@@H](CCCCN)C(=O)N[C@@H](Cc1c[nH]cn1)C(=O)N[C@@H](Cc1c[nH]c2ccccc12)C(=O)N1CCC[C@H]1C(=O)N[C@@H](Cc1c[nH]c2ccccc12)C(=O)N[C@@H](CCSC)C(=O)N[C@@H](CCCCN)C(N)=O)C(C)C)[C@@H](C)CC [HC120] (H-AIFCAQYNIRSFMNVKHWPWMK-NH2; N-terminus assumed) | 5.28 | –
CCCC[C@H](NC(=O)[C@H](Cc1c[nH]c2ccccc12)NC(=O)[C@@H]1CCCN1C(=O)[C@H](Cc1c[nH]c2ccccc12)NC(=O)[C@H](Cc1c[nH]cn1)NC(=O)[C@H](CCCCN)NC(=O)[C@@H](NC(=O)[C@H](CC(N)=O)NC(=O)[C@H](CCCC)NC(=O)[C@H](Cc1ccccc1)NC(=O)[C@H](CO)NC(=O)[C@H](CCCNC(=N)N)NC(=O)[C@@H](NC(=O)[C@H](CC(N)=O)NC(=O)[C@H](Cc1ccc(O)cc1)NC(=O)[C@H](CCC(N)=O)NC(=O)[C@@H](NC(=O)[C@H](CS)NC(=O)[C@H](Cc1ccccc1)NC(=O)[C@H]([C@@H](C)CC)N(C)C(=O)[C@H](C)N)[C@@H](C)CC)[C@@H](C)CC)C(C)C)C(=O)N[C@@H](CCCCN)C(N)=O [HC192] (H-A[NMeI]FCIQYNIRSF[Nle]NVKHWPW[Nle]K-NH2; N-terminus assumed) | – | 5.66

Other lines, results leading:

pIC50 [1] | pIC50 [2] | Compound
5.74 | – | CC[C@H](C)[C@H](NC(=O)[C@H](C)N)C(=O)N[C@@H](C)C(=O)N[C@@H](CS)C(=O)N[C@H](C(=O)N[C@@H](CCC(N)=O)C(=O)N[C@@H](Cc1ccc(O)cc1)C(=O)N[C@@H](CC(N)=O)C(=O)N[C@H](C(=O)N[C@@H](CCCNC(=N)N)C(=O)N[C@@H](CO)C(=O)N[C@@H](Cc1ccccc1)C(=O)N[C@@H](CCSC)C(=O)N[C@@H](CC(N)=O)C(=O)N[C@H](C(=O)N[C@@H](CCCCN)C(=O)N[C@@H](Cc1c[nH]cn1)C(=O)N[C@@H](Cc1c[nH]c2ccccc12)C(=O)N1CCC[C@H]1C(=O)N[C@@H](Cc1c[nH]c2ccccc12)C(=O)N[C@@H](CCSC)C(=O)N[C@@H](CCCCN)C(N)=O)C(C)C)[C@@H](C)CC)[C@@H](C)CC [HC118] (H-AIACIQYNIRSFMNVKHWPWMK-NH2; N-terminus assumed)
5.70 | – | CC[C@H](C)[C@H](NC(=O)[C@H](C)N)C(=O)N[C@@H](Cc1ccccc1)C(=O)N[C@@H](CS)C(=O)N[C@H](C(=O)N[C@@H](CCC(N)=O)C(=O)N[C@@H](Cc1ccc(O)cc1)C(=O)N[C@@H](CC(N)=O)C(=O)N[C@H](C(=O)N[C@@H](CCCNC(=N)N)C(=O)N[C@@H](CO)C(=O)N[C@@H](Cc1ccccc1)C(=O)N[C@@H](C)C(=O)N[C@@H](CC(N)=O)C(=O)N[C@H](C(=O)N[C@@H](CCCCN)C(=O)N[C@@H](Cc1c[nH]cn1)C(=O)N[C@@H](Cc1c[nH]c2ccccc12)C(=O)N1CCC[C@H]1C(=O)N[C@@H](Cc1c[nH]c2ccccc12)C(=O)N[C@@H](CCSC)C(=O)N[C@@H](CCCCN)C(N)=O)C(C)C)[C@@H](C)CC)[C@@H](C)CC [HC128] (H-AIFCIQYNIRSFANVKHWPWMK-NH2; N-terminus assumed)
– | 5.85 | CCCC[C@H](NC(=O)[C@H](Cc1c[nH]c2ccccc12)NC(=O)[C@@H]1CCCN1C(=O)[C@H](Cc1c[nH]c2ccccc12)NC(=O)[C@H](Cc1c[nH]cn1)N(C)C(=O)[C@H](CCCCN)NC(=O)[C@@H](NC(=O)[C@H](CC(N)=O)NC(=O)[C@H](CCCC)NC(=O)[C@H](Cc1ccccc1)NC(=O)[C@H](CO)NC(=O)[C@H](CCCNC(=N)N)NC(=O)[C@@H](NC(=O)[C@H](CC(N)=O)NC(=O)[C@H](Cc1ccc(O)cc1)NC(=O)[C@H](CCC(N)=O)NC(=O)[C@@H](NC(=O)[C@H](CS)NC(=O)[C@H](Cc1ccccc1)NC(=O)[C@@H](NC(=O)[C@H](C)N)[C@@H](C)CC)[C@@H](C)CC)[C@@H](C)CC)C(C)C)C(=O)N[C@@H](CCCCN)C(N)=O [HC200] (H-AIFCIQYNIRSF[Nle]NVK[NMeH]WPW[Nle]K-NH2; N-terminus assumed)
5.57 | – | CC[C@H](C)[C@H](NC(=O)[C@H](C)N)C(=O)N[C@@H](Cc1ccccc1)C(=O)N[C@@H](CS)C(=O)N[C@H](C(=O)N[C@@H](CCC(N)=O)C(=O)N[C@@H](Cc1ccc(O)cc1)C(=O)N[C@@H](CC(N)=O)C(=O)N[C@H](C(=O)N[C@@H](CCCNC(=N)N)C(=O)N[C@@H](CO)C(=O)N[C@@H](Cc1ccccc1)C(=O)N[C@@H](CCSC)C(=O)N[C@@H](CC(N)=O)C(=O)N[C@H](C(=O)N[C@@H](CCCCN)C(=O)N[C@@H](Cc1c[nH]cn1)C(=O)N[C@@H](Cc1c[nH]c2ccccc12)C(=O)N1CCC[C@H]1C(=O)N[C@@H](C)C(=O)N[C@@H](CCSC)C(=O)N[C@@H](CCCCN)C(N)=O)C(C)C)[C@@H](C)CC)[C@@H](C)CC [HC135] (H-AIFCIQYNIRSFMNVKHWPAMK-NH2; N-terminus assumed)
5.96 | – | CC[C@H](C)[C@H](NC(=O)[C@H](C)N)C(=O)N[C@@H](Cc1ccccc1)C(=O)N[C@@H](CS)C(=O)N[C@H](C(=O)N[C@@H](CCC(N)=O)C(=O)N[C@@H](C)C(=O)N[C@@H](CC(N)=O)C(=O)N[C@H](C(=O)N[C@@H](CCCNC(=N)N)C(=O)N[C@@H](CO)C(=O)N[C@@H](Cc1ccccc1)C(=O)N[C@@H](CCSC)C(=O)N[C@@H](CC(N)=O)C(=O)N[C@H](C(=O)N[C@@H](CCCCN)C(=O)N[C@@H](Cc1c[nH]cn1)C(=O)N[C@@H](Cc1c[nH]c2ccccc12)C(=O)N1CCC[C@H]1C(=O)N[C@@H](Cc1c[nH]c2ccccc12)C(=O)N[C@@H](CCSC)C(=O)N[C@@H](CCCCN)C(N)=O)C(C)C)[C@@H](C)CC)[C@@H](C)CC [HC122] (H-AIFCIQANIRSFMNVKHWPWMK-NH2; N-terminus assumed)
6.22 | – | CC[C@H](C)[C@H](NC(=O)[C@H](C)N)C(=O)N[C@@H](Cc1ccccc1)C(=O)N[C@@H](CS)C(=O)N[C@H](C(=O)N[C@@H](CCC(N)=O)C(=O)N[C@@H](Cc1ccc(O)cc1)C(=O)N[C@@H](CC(N)=O)C(=O)N[C@H](C(=O)N[C@@H](C)C(=O)N[C@@H](CO)C(=O)N[C@@H](Cc1ccccc1)C(=O)N[C@@H](CCSC)C(=O)N[C@@H](CC(N)=O)C(=O)N[C@H](C(=O)N[C@@H](CCCCN)C(=O)N[C@@H](Cc1c[nH]cn1)C(=O)N[C@@H](Cc1c[nH]c2ccccc12)C(=O)N1CCC[C@H]1C(=O)N[C@@H](Cc1c[nH]c2ccccc12)C(=O)N[C@@H](CCSC)C(=O)N[C@@H](CCCCN)C(N)=O)C(C)C)[C@@H](C)CC)[C@@H](C)CC [HC125] (H-AIFCIQYNIASFMNVKHWPWMK-NH2; N-terminus assumed)
5.49 | – | CC[C@H](C)[C@H](NC(=O)[C@H](C)N)C(=O)N[C@@H](Cc1ccccc1)C(=O)N[C@@H](CS)C(=O)N[C@H](C(=O)N[C@@H](C)C(=O)N[C@@H](Cc1ccc(O)cc1)C(=O)N[C@@H](CC(N)=O)C(=O)N[C@H](C(=O)N[C@@H](CCCNC(=N)N)C(=O)N[C@@H](CO)C(=O)N[C@@H](Cc1ccccc1)C(=O)N[C@@H](CCSC)C(=O)N[C@@H](CC(N)=O)C(=O)N[C@H](C(=O)N[C@@H](CCCCN)C(=O)N[C@@H](Cc1c[nH]cn1)C(=O)N[C@@H](Cc1c[nH]c2ccccc12)C(=O)N1CCC[C@H]1C(=O)N[C@@H](Cc1c[nH]c2ccccc12)C(=O)N[C@@H](CCSC)C(=O)N[C@@H](CCCCN)C(N)=O)C(C)C)[C@@H](C)CC)[C@@H](C)CC [HC121] (H-AIFCIAYNIRSFMNVKHWPWMK-NH2; N-terminus assumed)
